Results from patent publication US20240384268A1, “Oligonucleotides” (Hudson Institute of Medical Research, priority 2021, published 2024).
In the oligonucleotide strings, read from the 5' end, every base follows the letter of its sugar. An asterisk marks phosphorothioate; unmarked linkages are phosphodiester. Other units and linkages are bracketed, terminal groups are in braces. A string of capitals states the bases alone. d = 2'-deoxy (DNA); m = 2'-O-methyl

Molecular target: T1, TLR8 (Homo sapiens, UniProt Q9NR97)
T1 sequence (Q9NR97 27-1041): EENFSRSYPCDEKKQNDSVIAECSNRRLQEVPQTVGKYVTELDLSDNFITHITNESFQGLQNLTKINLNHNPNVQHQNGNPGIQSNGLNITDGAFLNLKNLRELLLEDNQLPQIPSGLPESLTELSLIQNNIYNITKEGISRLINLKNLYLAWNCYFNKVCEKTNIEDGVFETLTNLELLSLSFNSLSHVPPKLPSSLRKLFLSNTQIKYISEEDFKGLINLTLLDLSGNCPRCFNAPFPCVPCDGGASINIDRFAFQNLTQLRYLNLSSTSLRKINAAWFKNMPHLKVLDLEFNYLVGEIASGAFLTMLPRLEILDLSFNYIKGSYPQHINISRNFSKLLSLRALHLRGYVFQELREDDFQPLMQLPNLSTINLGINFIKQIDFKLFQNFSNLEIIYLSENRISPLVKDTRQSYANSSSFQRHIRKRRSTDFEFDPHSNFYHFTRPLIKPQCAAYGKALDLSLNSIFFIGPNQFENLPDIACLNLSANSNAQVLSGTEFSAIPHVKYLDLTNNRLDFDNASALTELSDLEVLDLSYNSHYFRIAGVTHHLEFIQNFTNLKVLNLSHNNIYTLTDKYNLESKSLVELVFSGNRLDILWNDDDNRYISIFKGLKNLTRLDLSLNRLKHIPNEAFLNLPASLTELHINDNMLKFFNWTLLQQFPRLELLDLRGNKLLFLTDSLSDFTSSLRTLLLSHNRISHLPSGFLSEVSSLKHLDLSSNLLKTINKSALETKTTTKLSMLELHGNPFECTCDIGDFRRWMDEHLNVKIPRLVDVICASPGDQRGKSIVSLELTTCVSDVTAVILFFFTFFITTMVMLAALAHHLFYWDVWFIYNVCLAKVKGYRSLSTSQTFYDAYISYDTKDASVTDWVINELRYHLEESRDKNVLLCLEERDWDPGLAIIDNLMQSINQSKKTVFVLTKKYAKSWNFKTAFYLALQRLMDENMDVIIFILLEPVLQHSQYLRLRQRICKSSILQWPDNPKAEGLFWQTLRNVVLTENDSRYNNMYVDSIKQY
Test: HEK-TLR8 NF-κB-luciferase reporter, R848 or Motolimod stimulation (potentiation or inhibition)
Type: cell-based
Design: expressed in transfected cells; host or cells: 293XLhTLR8 (HEK293)
Settings: for TLR8 100 nM (averaged NF-κB-Luciferase level relative to R848 condition, fold increase): ASO 100 nM; for TLR8 100 nM (averaged NF-κB-Luciferase level relative to R848 condition, fold increase) / TLR8 500 nM (averaged NF-κB-Luciferase level relative to R848 condition, fold increase): relative to R848 only; for TLR8 500 nM (averaged NF-κB-Luciferase level relative to R848 condition, fold increase): ASO 500 nM; for TLR8 HEK 5 uM: 3mer 2'OMe ASO at 5 uM, value relative to Ligand only = 1.000, NT = 0.000; for effect of 3-mer 2′OMe PS oligos on TLR8 sensing in HEK-TLR8 (in words): 5 μM naked 3-mer, Motolimod
Experimental: (§1) In such examples, potentiation of TLR8 activity can be identified by observation of an overall increased TLR8 response of the cell population, or a higher proportion of cells having TLR8-positive activity as compared to a negative control condition in which cells are treated with TLR8 agonist in the absence of the oligonucleotide (or in the presence of an appropriate control non-potentiating agent). In one example, 293XLhTLR8 (referred to as HEK-TLR8) cells are transfected with pNF-κB-Luc4 reporter, incubated with an oligonucleotide, and then stimulated with R848. TLR8 activity can be determined by a luciferase assay, which measures activated NF-κB by luminescence. TLR8 activity can also be analysed by measuring cytokine levels, for example by ELISA.
as §1, with “inhibition” for “potentiation”, “decreased” for “increased”, “lower” for “higher”, “positive” for “negative”, “inhibitory” for “non-potentiating”
For cGAS stimulations, cells were treated for indicated duration with ASOs, prior to transfection with ISD70 (human cells) or ISD45 (mouse cells) (the ASOs were not washed off prior to ISD transfection unless otherwise indicated). The cGAS ligands ISD45 (Stetson and Medzhitov, 2006) and ISD70 (also known as VACV-70 (Unterholzner et al., 2010)) (Table 1) were resuspended as follows: 5 1d of sense and 5 μl of antisense strands at 10 μg/μl were added to 90 μl PBS under sterile conditions, heated at 75° C. for 30 min, prior to letting cool down at room temperature and aliquoting (stock at 1 μg/1 l). The ISDs were transfected at a concentration of […] at a ratio of 1 μg:1 μl with Lipofectamine 2000 in Opti-MEM (Thermo Fisher Scientific). HEK-TLR3, HEK-TLR7 and […] were treated with indicated concentration of ASOs for 20-50 min, prior to stimulation with poly(I:C) (Invivogen), R848 (Invivogen), Motolimod (MedChemExpress) and the Class B CpG oligonucleotides ODN 2006 (synthesised by IDT and resuspended in RNase-free TE buffer [Table 1]), respectively. The TLR2/1 agonist PAM3CSK4 (Invivogen), the TLR4 agonist lipopolysaccharide (Invivogen), the Class B CpG oligonucleotides ODN 1826 (synthesised by IDT and resuspended in RNase-free TE buffer), the mouse Sting agonist DMXAA (Cayman) and the human STING agonist (compound #3 from (Raanjulu et al., 2018), referred to as GSK herein—kind gift from Cancer Therapeutics CRC, Australia) were used at indicated concentrations. Aspirin (Sigma—A2093) was resuspended in pure medium to 10 mM, filter sterilised and added to the cells at 2 mM final. All ASOs were synthesised by Integrated DNA Technologies (IDT), and resuspended in RNase-free TE buffer, pH 8.0 (Thermo Fisher Scientific). Cell viability was assessed by adding 1× fresh resazurin solution to the wells (10λ solution made up with 7 mg resazurin [Sigma—R7017] dissolved in 3.5 ml PBS, sterile filtered at […]) for 4 h, prior to reading at with a Fluostar OPTIMA (BMG LABTECH) plate-reader (fluorescence: Excitation 535 nm, Emission 590); wells with medium only and 1× resazurin were used as blanks.

Substance | TLR8 100 nM (averaged NF-κB-Luciferase level relative to R848 condition, fold increase) | TLR8 500 nM (averaged NF-κB-Luciferase level relative to R848 condition, fold increase) | TLR8 HEK 5 uM | effect of 3-mer 2′OMe PS oligos on TLR8 sensing in HEK-TLR8 (in words)
GGCTGGAATCCGAGTT (antisense; LNA-modified, pattern not given here) [EGFR-4705 LNA KL] | 0.562 | 0.577 | – | –
ACU (antisense mA*mC*mU) | – | – | 0.896 | –
dC*dA*dC (CAC; listed as RNA, chemistry not fully specified) | – | – | 0.809 | –
GTCCCCTGTTGACTGG (antisense; LNA-modified, pattern not given here) [HPRT LNA-489 KL] | 0.335 | 0.304 | – | –
TGTGATGGCCTCCCAT (antisense; LNA-modified, pattern not given here) [HPRT LNA-334 V1] | 0.582 | 1.596 | – | –
CAACACTTCGTGGGGT (antisense; LNA-modified, pattern not given here) [HPRT LNA-667 V1] | 0.591 | 0.690 | – | –
mGmUmA (GUA; all 2'-O-methyl, backbone not given here; further chemistry not fully specified) [shortMut1-3b] | – | – | 0.792 | robustly inhibitory
AGU (antisense mA*mG*mU) | – | – | 1.329 | –
TTCGTGGGGTCCTTTT (antisense; LNA-modified, pattern not given here) [HPRT LNA-661 V1] | 0.621 | 3.144 | – | –
GGU (mG*mG*mU) | – | – | 1.380 | –
dG*dC*dG [GCG] | – | – | 1.191 | –
TCCAACACTTCGTGGG (antisense; LNA-modified, pattern not given here) [HPRT LNA-669 V1] | 0.413 | 0.491 | – | –
GCCATGCTGGCTCGGA (antisense; LNA-modified, pattern not given here) [CAMSAP1-2584 LNA V1] | 0.446 | 0.363 | – | –
dG*dC*dC [GCC] | – | – | 0.701 | –
dA*dG*dC (DNA AGC; listed as DNA, chemistry not fully specified) | – | – | 1.411 | –
mGmUmC (mG*mU*mC) [GUC, 3-mer 2′OMe PS oligo] | – | – | 0.763 | robustly inhibitory
ACACTTCGTGGGGTCC (antisense; LNA-modified, pattern not given here) [HPRT LNA-665 V1] | 0.422 | 1.029 | – | –

Substance | TLR8 100 nM (averaged NF-κB-Luciferase level relative to R848 condition, fold increase) | TLR8 500 nM (averaged NF-κB-Luciferase level relative to R848 condition, fold increase) | TLR8 HEK 5 uM | effect of 3-mer 2′OMe PS oligos on TLR8 sensing in HEK-TLR8 (in words)
mGmUmU (mG*mU*mU) [GUU, 3-mer 2′OMe PS oligo] | – | – | 0.668 | robustly inhibitory
dA*dA*dC (DNA AAC; listed as DNA, chemistry not fully specified) | – | – | 0.696 | –
mGmUmG (mG*mU*mG) [GUG, 3-mer 2′OMe PS oligo] | – | – | 0.882 | robustly inhibitory
GGTTACGGCTCAGTAT (antisense; LNA-modified, pattern not given here) [CAMSAP1-4295 LNA KL] | 0.804 | 1.848 | – | –
UAG (mU*mA*mG) | – | – | 1.443 | –
TTTTGGCTGGGATCAA (antisense; LNA-modified, pattern not given here) [CAMSAP1-4697 LNA KL] | 0.542 | 1.412 | – | –
UAC (mU*mA*mC) | – | – | 0.813 | –
CCAAGATCAGCAGTCT (antisense; LNA-modified, pattern not given here) [CTNN2B-2341 LNA KL] | 1.015 | 2.920 | – | –
mUmGmG (mU*mG*mG) [UGG, 3-mer 2′OMe PS oligo] | – | – | 1.860 | potentiated the sensing of R848
UUC (mU*mU*mC) | – | – | 0.968 | –
GCU (mG*mC*mU) | – | – | 0.810 | –
GTGTCTGGAAGCTTCC (antisense; LNA-modified, pattern not given here) [CTNN2B-809 LNA V1] | 0.923 | 2.057 | – | –
AUA (antisense mA*mU*mA) | – | – | 0.812 | –
TGCACACTTCGTACCC (antisense; LNA-modified, pattern not given here) [CAMSAP1-4916 LNA V1] | 0.411 | 0.370 | – | –
GCATCCACCACGTCGT (antisense; LNA-modified, pattern not given here) [EGFR-3267 LNA V1] | 0.607 | 0.738 | – | –
CCATCCATGAGGTCCT (antisense; LNA-modified, pattern not given here) [CTNN2B-2545 LNA V1] | 0.675 | 1.169 | – | –
